Data reported in patent publication US8802597B2, “Herbicidal pyrimidines” (E I du Pont de Nemours and Company, priority 2003, dated 2014).
Like-named read-outs stand apart in the source and are kept apart here.

Key:
Assay in all cases: Test C pre/postemergence
Type in all cases: in vivo
[1] = system: goosegrass (Eleusine indica); settings: Eleusine indica; for pest or weed control at 125 g/ha: 125 g ai/ha; for pest or weed control at 250 g/ha: 250 g ai/ha
Summary of the method: (§1)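 Test compounds, formulated in a non-phytotoxic solvent mix with surfactant, were applied to freshly planted seeds and, at the same time, to emerged plants at 1- to 4-leaf stage (2 to 18 cm). After 12 to 14 days in the greenhouse, response was scored visually versus controls, 0 = no effect, 100 = complete control.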

kochia (Kochia scoparia) = settings: Bassia scoparia; for pest or weed control at 31 g/ha: 31 g ai/ha; for pest or weed control at 62 g/ha: 62 g ai/ha; for pest or weed control at 125 g/ha: 125 g ai/ha; for pest or weed control at 250 g/ha: 250 g ai/ha
Summary of the method: as §1

[2] = system: lambsquarters (Chenopodium album); settings: Chenopodium album; for pest or weed control at 31 g/ha: 31 g ai/ha; for pest or weed control at 62 g/ha: 62 g ai/ha; for pest or weed control at 125 g/ha: 125 g ai/ha; for pest or weed control at 250 g/ha: 250 g ai/ha
Summary of the method: as §1

[3] = system: pigweed (Amaranthus retroflexus); settings: Amaranthus retroflexus; for pest or weed control at 31 g/ha: 31 g ai/ha; for pest or weed control at 62 g/ha: 62 g ai/ha; for pest or weed control at 125 g/ha: 125 g ai/ha; for pest or weed control at 250 g/ha: 250 g ai/ha
Summary of the method: as §1

[4] = system: velvetleaf (Abutilon theophrasti); settings: Abutilon theophrasti; for pest or weed control at 31 g/ha: 31 g ai/ha; for pest or weed control at 62 g/ha: 62 g ai/ha; for pest or weed control at 125 g/ha: 125 g ai/ha; for pest or weed control at 250 g/ha: 250 g ai/ha
Summary of the method: as §1

[5] = system: yellow nutsedge (Cyperus esculentus); settings: Cyperus; for pest or weed control at 31 g/ha: 31 g ai/ha; for pest or weed control at 62 g/ha: 62 g ai/ha; for pest or weed control at 125 g/ha: 125 g ai/ha; for pest or weed control at 250 g/ha: 250 g ai/ha
Summary of the method: as §1

[6] = pre-emergence, Preemergence, scale 0 to 100, read-out: Plant response rating, Goosegrass
[7] = post-emergence, Postemergence, scale 0 to 100 (0 no effect, 100 complete control), read-out: Kochia plant response rating
[8] = pre-emergence, Preemergence, scale 0 to 100, 0 no effect, 100 complete control, read-out: Plant response rating, Kochia
[9] = pre-emergence, Preemergence, scale 0 to 100, read-out: Plant response rating, Kochia
[10] = post-emergence, Postemergence, scale 0 to 100 (0 no effect, 100 complete control), read-out: Lambsquarters plant response rating
[11] = pre-emergence, Preemergence, scale 0 to 100, 0 no effect, 100 complete control, read-out: Plant response rating, Lambsquarters
[12] = pre-emergence, Preemergence, scale 0 to 100, read-out: Plant response rating, Lambsquarters
[13] = post-emergence, Postemergence, scale 0 to 100 (0 no effect, 100 complete control), read-out: Pigweed plant response rating
[14] = pre-emergence, Preemergence, scale 0 to 100, 0 no effect, 100 complete control, read-out: Plant response rating, Pigweed
[15] = pre-emergence, Preemergence, scale 0 to 100, read-out: Plant response rating, Pigweed
[16] = post-emergence, Postemergence, scale 0 to 100 (0 no effect, 100 complete control), read-out: Velvetleaf plant response rating
[17] = pre-emergence, Preemergence, scale 0 to 100, 0 no effect, 100 complete control, read-out: Plant response rating, Velvetleaf
[18] = pre-emergence, Preemergence, scale 0 to 100, read-out: Plant response rating, Velvetleaf
[19] = post-emergence, Postemergence, scale 0 to 100 (0 no effect, 100 complete control), read-out: Nutsedge, Yellow plant response rating
[20] = pre-emergence, Preemergence, scale 0 to 100, 0 no effect, 100 complete control, read-out: Plant response rating, Nutsedge, Yellow
[21] = pre-emergence, Preemergence, scale 0 to 100, read-out: Plant response rating, Nutsedge, Yellow

`CCOC(=O)c1nc(C2CC2)nc(N)c1F` [Compound 30] gave a pest or weed control at 125 g/ha ([1]; post-emergence, Postemergence, scale 0 to 100 (0 no effect, 100 complete control), read-out: Goosegrass plant response rating) of 0%, a pest or weed control at 250 g/ha ([1]; post-emergence, Postemergence, scale 0 to 100, read-out: Plant response rating, Goosegrass) of 0% and a pest or weed control at 31 g/ha ([1]; pre-emergence, Preemergence, 31 g ai/ha, scale 0 to 100, 0 no effect, 100 complete control, read-out: Plant response rating, Goosegrass) of 0%. It also gave a pest or weed control at 62 g/ha ([1]; pre-emergence, Preemergence, 62 g ai/ha, scale 0 to 100, 0 no effect, 100 complete control, read-out: Plant response rating, Goosegrass) of 30%, a pest or weed control at 125 g/ha [1, 6] of 35% and a pest or weed control at 250 g/ha [1, 6] of 50%. The pest or weed control at 31 g/ha (kochia (Kochia scoparia); post-emergence, Postemergence, read-out: Plant response rating (scale of 0 to 100), Kochia) was 55%, the pest or weed control at 62 g/ha (kochia (Kochia scoparia); [7]) was 90% and the pest or weed control at 125 g/ha (kochia (Kochia scoparia); [7]) was 100%. It also gave a pest or weed control at 250 g/ha (kochia (Kochia scoparia); post-emergence, Postemergence, scale 0 to 100, read-out: Plant response rating, Kochia) of 100%, a pest or weed control at 31 g/ha (kochia (Kochia scoparia); [8]) of 50% and a pest or weed control at 62 g/ha (kochia (Kochia scoparia); [8]) of 70%. The pest or weed control at 125 g/ha (kochia (Kochia scoparia); [9]) was 70%, the pest or weed control at 250 g/ha (kochia (Kochia scoparia); [9]) was 90% and the pest or weed control at 31 g/ha ([2]; post-emergence, Postemergence, read-out: Plant response rating (scale of 0 to 100), Lambsquarters) was 50%. It also gave a pest or weed control at 62 g/ha [2, 10] of 60%, a pest or weed control at 125 g/ha [2, 10] of 80% and a pest or weed control at 250 g/ha ([2]; post-emergence, Postemergence, scale 0 to 100, read-out: Plant response rating, Lambsquarters) of 90%. The pest or weed control at 31 g/ha [2, 11] was 0%, the pest or weed control at 62 g/ha [2, 11] was 80% and the pest or weed control at 125 g/ha [2, 12] was 85%. The pest or weed control at 250 g/ha [2, 12] was 90%, the pest or weed control at 31 g/ha ([3]; post-emergence, Postemergence, read-out: Plant response rating (scale of 0 to 100), Pigweed) was 60% and the pest or weed control at 62 g/ha [3, 13] was 70%. For the same compound, the pest or weed control at 125 g/ha [3, 13] was 80%, the pest or weed control at 250 g/ha ([3]; post-emergence, Postemergence, scale 0 to 100, read-out: Plant response rating, Pigweed) was 90% and the pest or weed control at 31 g/ha [3, 14] was 0%. The pest or weed control at 62 g/ha [3, 14] was 30%, the pest or weed control at 125 g/ha [3, 15] was 80% and the pest or weed control at 250 g/ha [3, 15] was 90%. For the same compound, the pest or weed control at 31 g/ha ([4]; post-emergence, Postemergence, read-out: Plant response rating (scale of 0 to 100), Velvetleaf) was 10%, the pest or weed control at 62 g/ha [4, 16] was 10% and the pest or weed control at 125 g/ha [4, 16] was 60%. For the same compound, the pest or weed control at 250 g/ha ([4]; post-emergence, Postemergence, scale 0 to 100, read-out: Plant response rating, Velvetleaf) was 60%, the pest or weed control at 31 g/ha [4, 17] was 0% and the pest or weed control at 62 g/ha [4, 17] was 10%. For the same compound, the pest or weed control at 125 g/ha [4, 18] was 15%, the pest or weed control at 250 g/ha [4, 18] was 50% and the pest or weed control at 31 g/ha ([5]; post-emergence, Postemergence, read-out: Plant response rating (scale of 0 to 100), Nutsedge, Yellow) was 0%. The pest or weed control at 62 g/ha [5, 19] was 0%, the pest or weed control at 125 g/ha [5, 19] was 0% and the pest or weed control at 250 g/ha ([5]; post-emergence, Postemergence, scale 0 to 100, read-out: Plant response rating, Nutsedge, Yellow) was 5%. For the same compound, the pest or weed control at 31 g/ha [5, 20] was 0%, the pest or weed control at 62 g/ha [5, 20] was 0% and the pest or weed control at 125 g/ha [5, 21] was 0%. The pest or weed control at 250 g/ha [5, 21] was 0%.
